From ChEMBL document CHEMBL1201862, “PubChem BioAssay data set” (2004)
The source made the active and inactive calls.

What was measured:
Major prion protein = Major prion protein (Homo sapiens, UniProt P04156); assay type: functional, cell-based
Genome polyprotein = Genome polyprotein (Hepatitis C virus, UniProt Q2Q167); assay: disruption of hepatitis C core self-association – biochemical, TR-FRET, dose response (AID 2159); design: species or system Hepacivirus hominis;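 note: blocks dimerization of HCV core protein measured by TR-FRET between tagged core106 pairs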
[1] = biological target: Photoreceptor-specific nuclear receptor (Homo sapiens, UniProt Q9Y5X4); assay type: functional;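 note: potency for compounds that break the NR2E3 corepressor complex and count as activators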
[2] = biological target: Peroxisome proliferator-activated receptor gamma/Nuclear receptor corepressor 2 (Homo sapiens, UniProt P37231+Q9Y618); assay type: functional
[3] = biological target: Peroxisome proliferator-activated receptor gamma/Nuclear receptor coactivator 3 (Homo sapiens, UniProt P37231); assay: TR-FRET dose response biochemical High Throughput Screening assay for agonists of the steroid receptor coactivator 3 (SRC-3) recruitment by the peroxisome proliferator-activated receptor gamma (PPAR gamma): non-selective agonists. [Related pubchem assays: 1301 (Confirmation screen.), 1048 (Primary screen.)]; assay type: functional
[4] = biological target: Peroxisome proliferator-activated receptor gamma/Nuclear receptor coactivator 2 (Homo sapiens, UniProt P37231); assay: (§1) TR-FRET dose response biochemical High Throughput Screening assay for agonists of the steroid receptor coactivator 2 (SRC-2) recruitment by the peroxisome proliferator-activated receptor gamma (PPAR gamma): non-selective agonists. [Related pubchem assays: 1297, 1032 ]; assay type: functional
[5] = biological target: Peroxisome proliferator-activated receptor gamma/Nuclear receptor coactivator 1 (Homo sapiens, UniProt P37231); assay: as §1, with “1 (SRC-1)” for “2 (SRC-2)”, “assays (depositor defined):AID1300, AID1808, AID504735, AID631]” for “assays: 1297, 1032 ]”; assay type: protein assay
Procathepsin L = Procathepsin L (Homo sapiens, UniProt P07711)
Aspartyl aminopeptidase = Aspartyl aminopeptidase (Plasmodium falciparum 3D7, UniProt Q8I2J3)
Cytochrome P450 2D6 = Cytochrome P450 2D6 (Homo sapiens, UniProt P10635);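 note: CYP2D6 member of a cytochrome P450 panel assay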
[6] = M. tuberculosis H37Rv growth inhibitors, H37Rv strain (AID 1626); assay type: functional
[7] = biological target: T1, Alkaline phosphatase, tissue-nonspecific isozyme (Homo sapiens, UniProt P05186)
T1 sequence (P05186 whole entry): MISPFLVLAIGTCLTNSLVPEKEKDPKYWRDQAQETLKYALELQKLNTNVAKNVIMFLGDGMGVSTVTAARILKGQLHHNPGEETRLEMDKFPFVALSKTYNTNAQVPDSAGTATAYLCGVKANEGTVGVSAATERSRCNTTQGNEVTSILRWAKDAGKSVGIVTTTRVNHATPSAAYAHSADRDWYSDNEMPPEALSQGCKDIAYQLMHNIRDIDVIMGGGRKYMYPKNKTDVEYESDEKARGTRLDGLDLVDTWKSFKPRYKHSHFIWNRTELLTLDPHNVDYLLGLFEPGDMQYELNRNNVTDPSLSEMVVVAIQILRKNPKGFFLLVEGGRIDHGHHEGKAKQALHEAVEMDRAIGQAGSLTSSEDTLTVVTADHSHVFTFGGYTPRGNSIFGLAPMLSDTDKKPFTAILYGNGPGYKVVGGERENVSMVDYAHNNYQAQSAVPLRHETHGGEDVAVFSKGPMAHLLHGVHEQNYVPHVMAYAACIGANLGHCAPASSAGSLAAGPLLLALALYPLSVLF

[8] = biological target: Acyl-homoserine lactone acylase PvdQ (Pseudomonas aeruginosa (strain LESB58), UniProt Q9I194); assay: PvdQ acylase enzyme activity blockers – biochemical, fluorescence, plate reader and imaging, cherry-picks, dose response (AID 493231)
[9] = biological target: T2, Heat shock factor protein 1 (Mus musculus, UniProt P38532); assay: enhancement of HSF1-driven luciferase signal – cell-based, NIH3T3, luminescence, dose retest, confirmation (AID 435004); assay type: functional;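 note: stress induced by proteasome inhibitor MG132 added 30 min after compound; luciferase reporter driven by HSF1 response element in NIH3T3 cells; actives raise luminescence as potentiators of the MG132 stress response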
T2 sequence (P38532 whole entry): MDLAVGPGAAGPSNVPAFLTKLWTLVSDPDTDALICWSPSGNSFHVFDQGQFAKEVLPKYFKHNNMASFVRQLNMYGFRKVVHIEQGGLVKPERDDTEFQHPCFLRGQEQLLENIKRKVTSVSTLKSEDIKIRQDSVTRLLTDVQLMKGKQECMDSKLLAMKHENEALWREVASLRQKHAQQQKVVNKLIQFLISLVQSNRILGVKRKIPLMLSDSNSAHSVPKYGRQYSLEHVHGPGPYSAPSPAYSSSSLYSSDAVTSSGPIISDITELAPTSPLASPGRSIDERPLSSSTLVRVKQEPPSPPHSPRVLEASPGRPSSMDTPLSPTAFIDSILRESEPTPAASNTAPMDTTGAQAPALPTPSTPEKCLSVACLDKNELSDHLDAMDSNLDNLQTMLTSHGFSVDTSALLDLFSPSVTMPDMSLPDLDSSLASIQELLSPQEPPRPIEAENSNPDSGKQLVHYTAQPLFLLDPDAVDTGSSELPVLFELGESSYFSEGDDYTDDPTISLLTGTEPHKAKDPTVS

HEK293 = assay: Fluorescence-based counterscreen for potentiators or agonists of NPY-Y2: cell-based high-throughput dose response assay to identify inhibitors of cyclic nucleotide gated ion channel (CNGC) activity. In this assay, the parental HEK293 cell line transfected with a cyclic-nucleotide gated ion channel (CNGC)-based cAMP sensor is used to measure inhibition of isoproterenol-induced CNGC activity by test compound.; assay type: functional; settings: Homo sapiens;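 note: stimulus is 1 µM isoproterenol at EC100 plus PDE inhibitor Ro 20-1724 at 25 µM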
[10] = biological target: T3, Calpain-2 catalytic subunit (Sus scrofa, UniProt P43367); assay: m-calpain protease blockers, concentration series – biochemical, fluorogenic peptide substrate, dose response (AID 1420); assay type: functional
T3 sequence (P43367 whole entry): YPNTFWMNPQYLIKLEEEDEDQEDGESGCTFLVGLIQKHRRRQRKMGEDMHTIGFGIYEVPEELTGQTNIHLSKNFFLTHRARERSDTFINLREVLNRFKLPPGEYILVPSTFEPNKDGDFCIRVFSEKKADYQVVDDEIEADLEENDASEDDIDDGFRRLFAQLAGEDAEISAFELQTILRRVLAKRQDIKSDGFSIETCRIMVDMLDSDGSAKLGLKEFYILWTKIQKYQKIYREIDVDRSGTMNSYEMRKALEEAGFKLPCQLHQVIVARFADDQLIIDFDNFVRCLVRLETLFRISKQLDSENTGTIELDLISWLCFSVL

[11] = fluconazole-exposed Candida albicans growth modulators – fluorescence, retest, confirmation (AID 2467); assay type: functional, cell-based
[12] = biological target: T4, Neuropeptide Y receptor type 2 (Homo sapiens, UniProt P49146); assay: Fluorescence-based cell-based high-throughput dose response assay for agonists of NPY-Y2. [Related pubchem assays: 1703 (Screening assay (CNGC inhibitors).), 1359 (Screening assay (NPY-Y2 potentiators or agonists).), 1304 (Screening assay (NPY-Y1 potentiators or agonists).), 1710 (Screening assay (NPY-Y2 agonists).), 1791 (Summary AID.)]; assay type: functional
T4 sequence (P49146 whole entry): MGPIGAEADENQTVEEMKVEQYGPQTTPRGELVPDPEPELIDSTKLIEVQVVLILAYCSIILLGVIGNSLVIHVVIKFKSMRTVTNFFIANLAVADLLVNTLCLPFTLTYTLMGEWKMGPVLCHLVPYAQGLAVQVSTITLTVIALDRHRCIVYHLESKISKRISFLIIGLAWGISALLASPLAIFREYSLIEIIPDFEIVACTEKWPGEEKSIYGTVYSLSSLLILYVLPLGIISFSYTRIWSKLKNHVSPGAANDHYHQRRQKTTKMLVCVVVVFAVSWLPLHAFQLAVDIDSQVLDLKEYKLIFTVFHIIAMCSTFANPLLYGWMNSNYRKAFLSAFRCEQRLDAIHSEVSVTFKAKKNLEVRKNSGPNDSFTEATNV

[13] = NIH-3T3 fibroblast cytotoxicity, dose response, cytotoxicity control, cell-based, fluorescence, Alamar Blue, secondary assay (AID 2327); assay type: functional;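 note: NIH-3T3 mouse fibroblasts cultured with fluconazole at 8 µg/mL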
[14] = biological target: T5, Neuropeptide Y receptor type 1 (Homo sapiens, UniProt P25929); assay: Fluorescence-based counterscreen for agonists of NPY-Y2: cell-based high-throughput dose response assay for agonists of NPY-Y1.; assay type: functional
T5 sequence (P25929 whole entry): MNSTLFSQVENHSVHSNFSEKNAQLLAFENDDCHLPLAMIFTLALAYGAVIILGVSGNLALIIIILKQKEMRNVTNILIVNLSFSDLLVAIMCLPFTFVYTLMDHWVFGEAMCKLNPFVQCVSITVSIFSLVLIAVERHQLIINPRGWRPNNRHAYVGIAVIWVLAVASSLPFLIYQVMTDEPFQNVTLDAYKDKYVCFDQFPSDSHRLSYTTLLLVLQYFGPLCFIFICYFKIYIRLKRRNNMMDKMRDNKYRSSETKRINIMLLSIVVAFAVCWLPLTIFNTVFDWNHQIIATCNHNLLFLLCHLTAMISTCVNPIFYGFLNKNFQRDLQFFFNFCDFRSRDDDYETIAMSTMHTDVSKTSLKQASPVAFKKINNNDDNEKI

[15] = biological target: Ras and Rab interactor 1/Tyrosine-protein kinase ABL1 (Homo sapiens, UniProt P00519+Q13671); assay type: functional;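 note: biochemical TR-FRET dose-response test measuring inhibition of binding between Rin1 and Abl proteins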
Streptokinase A = biological target: T6, Streptokinase A (Streptococcus pyogenes serotype M1, UniProt P10520); assay: viability-normalized secreted streptokinase activity reduction – plasminogen activation absorbance, OD405, dose response (AID 1914); assay type: functional, Streptococcus pyogenes M1 GAS;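 note: secreted streptokinase activity via plasminogen activation per viability signal from cell pellet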
T6 sequence (P10520 whole entry): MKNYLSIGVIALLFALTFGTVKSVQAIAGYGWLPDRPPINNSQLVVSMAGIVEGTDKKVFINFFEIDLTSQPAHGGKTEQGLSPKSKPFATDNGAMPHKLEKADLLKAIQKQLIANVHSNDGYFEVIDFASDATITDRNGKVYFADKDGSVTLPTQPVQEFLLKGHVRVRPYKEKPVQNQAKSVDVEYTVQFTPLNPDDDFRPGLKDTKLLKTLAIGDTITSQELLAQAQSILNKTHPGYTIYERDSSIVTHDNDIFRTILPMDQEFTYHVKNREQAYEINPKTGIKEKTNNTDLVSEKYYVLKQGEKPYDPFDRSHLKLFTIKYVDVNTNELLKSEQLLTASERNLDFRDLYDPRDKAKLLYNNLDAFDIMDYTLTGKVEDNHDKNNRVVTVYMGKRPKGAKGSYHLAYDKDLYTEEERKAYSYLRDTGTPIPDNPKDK

Streptococcus = assay: GAS UMAA2166 growth inhibition – luminescence, BacTiterGlo, counter-screen for streptokinase expression inhibitor project, dose response (AID 1915); assay type: functional, organism-based;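 note: potency for reduction of bacterial viability or growth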
[16] = biological target: T7, Ubiquitin-conjugating enzyme E2 N (Homo sapiens, UniProt P61088); assay type: functional;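 note: Dose-response confirmation in a TR-FRET assay detecting UBC13-driven polyubiquitin chain formation, inhibition measured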
T7 sequence (P61088 whole entry): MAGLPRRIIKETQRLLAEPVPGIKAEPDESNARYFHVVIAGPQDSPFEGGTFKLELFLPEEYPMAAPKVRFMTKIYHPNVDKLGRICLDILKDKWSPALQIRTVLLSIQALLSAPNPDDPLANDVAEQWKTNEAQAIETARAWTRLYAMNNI

[17] = tested on: Streptococcus sp. 'group A'; assay: Streptococcus pyogenes SK(-)GAS viability under kanamycin – luminescence, BacTiterGlo, confirmation, counter-screen for streptokinase expression inhibitor project, dose response (AID 1900); assay type: functional, organism-based

Chain of Photoreceptor-specific nuclear receptor (Q9Y5X4 whole entry): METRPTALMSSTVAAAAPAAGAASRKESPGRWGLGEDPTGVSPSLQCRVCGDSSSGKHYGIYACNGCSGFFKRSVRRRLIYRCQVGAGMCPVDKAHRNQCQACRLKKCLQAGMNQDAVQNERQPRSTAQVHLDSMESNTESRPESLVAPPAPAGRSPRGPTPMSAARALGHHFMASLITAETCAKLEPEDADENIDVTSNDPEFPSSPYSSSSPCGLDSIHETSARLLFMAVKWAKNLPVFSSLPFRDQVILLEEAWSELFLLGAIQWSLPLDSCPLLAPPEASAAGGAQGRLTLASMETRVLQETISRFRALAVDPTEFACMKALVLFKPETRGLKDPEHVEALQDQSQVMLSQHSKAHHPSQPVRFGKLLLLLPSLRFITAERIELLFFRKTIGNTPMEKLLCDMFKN
Chain of Procathepsin L (P07711 whole entry): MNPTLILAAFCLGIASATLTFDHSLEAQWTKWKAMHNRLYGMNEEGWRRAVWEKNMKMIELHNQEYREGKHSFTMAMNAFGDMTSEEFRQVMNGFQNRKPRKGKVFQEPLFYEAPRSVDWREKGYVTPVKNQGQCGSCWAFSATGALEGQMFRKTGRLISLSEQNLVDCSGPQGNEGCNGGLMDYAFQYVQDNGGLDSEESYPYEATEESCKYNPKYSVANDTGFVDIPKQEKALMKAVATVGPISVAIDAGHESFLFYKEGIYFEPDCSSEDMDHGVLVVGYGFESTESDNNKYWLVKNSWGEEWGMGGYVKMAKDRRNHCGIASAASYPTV
Chain of Peroxisome proliferator-activated receptor gamma/Nuclear receptor corepressor 2 (P37231 whole entry): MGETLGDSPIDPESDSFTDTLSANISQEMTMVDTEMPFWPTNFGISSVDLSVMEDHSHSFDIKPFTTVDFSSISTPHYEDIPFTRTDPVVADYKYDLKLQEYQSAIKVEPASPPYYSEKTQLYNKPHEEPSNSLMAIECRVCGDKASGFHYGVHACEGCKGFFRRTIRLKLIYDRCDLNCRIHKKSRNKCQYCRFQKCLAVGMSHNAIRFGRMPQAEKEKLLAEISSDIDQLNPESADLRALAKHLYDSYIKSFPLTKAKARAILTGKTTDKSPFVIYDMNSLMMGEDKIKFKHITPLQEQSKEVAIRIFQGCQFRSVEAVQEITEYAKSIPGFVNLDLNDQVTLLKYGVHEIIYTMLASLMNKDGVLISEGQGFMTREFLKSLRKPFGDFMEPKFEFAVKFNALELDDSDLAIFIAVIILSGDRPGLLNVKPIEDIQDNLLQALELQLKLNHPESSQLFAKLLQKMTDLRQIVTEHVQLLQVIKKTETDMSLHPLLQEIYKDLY
Chain of Peroxisome proliferator-activated receptor gamma/Nuclear receptor corepressor 2 (Q9Y618 whole entry): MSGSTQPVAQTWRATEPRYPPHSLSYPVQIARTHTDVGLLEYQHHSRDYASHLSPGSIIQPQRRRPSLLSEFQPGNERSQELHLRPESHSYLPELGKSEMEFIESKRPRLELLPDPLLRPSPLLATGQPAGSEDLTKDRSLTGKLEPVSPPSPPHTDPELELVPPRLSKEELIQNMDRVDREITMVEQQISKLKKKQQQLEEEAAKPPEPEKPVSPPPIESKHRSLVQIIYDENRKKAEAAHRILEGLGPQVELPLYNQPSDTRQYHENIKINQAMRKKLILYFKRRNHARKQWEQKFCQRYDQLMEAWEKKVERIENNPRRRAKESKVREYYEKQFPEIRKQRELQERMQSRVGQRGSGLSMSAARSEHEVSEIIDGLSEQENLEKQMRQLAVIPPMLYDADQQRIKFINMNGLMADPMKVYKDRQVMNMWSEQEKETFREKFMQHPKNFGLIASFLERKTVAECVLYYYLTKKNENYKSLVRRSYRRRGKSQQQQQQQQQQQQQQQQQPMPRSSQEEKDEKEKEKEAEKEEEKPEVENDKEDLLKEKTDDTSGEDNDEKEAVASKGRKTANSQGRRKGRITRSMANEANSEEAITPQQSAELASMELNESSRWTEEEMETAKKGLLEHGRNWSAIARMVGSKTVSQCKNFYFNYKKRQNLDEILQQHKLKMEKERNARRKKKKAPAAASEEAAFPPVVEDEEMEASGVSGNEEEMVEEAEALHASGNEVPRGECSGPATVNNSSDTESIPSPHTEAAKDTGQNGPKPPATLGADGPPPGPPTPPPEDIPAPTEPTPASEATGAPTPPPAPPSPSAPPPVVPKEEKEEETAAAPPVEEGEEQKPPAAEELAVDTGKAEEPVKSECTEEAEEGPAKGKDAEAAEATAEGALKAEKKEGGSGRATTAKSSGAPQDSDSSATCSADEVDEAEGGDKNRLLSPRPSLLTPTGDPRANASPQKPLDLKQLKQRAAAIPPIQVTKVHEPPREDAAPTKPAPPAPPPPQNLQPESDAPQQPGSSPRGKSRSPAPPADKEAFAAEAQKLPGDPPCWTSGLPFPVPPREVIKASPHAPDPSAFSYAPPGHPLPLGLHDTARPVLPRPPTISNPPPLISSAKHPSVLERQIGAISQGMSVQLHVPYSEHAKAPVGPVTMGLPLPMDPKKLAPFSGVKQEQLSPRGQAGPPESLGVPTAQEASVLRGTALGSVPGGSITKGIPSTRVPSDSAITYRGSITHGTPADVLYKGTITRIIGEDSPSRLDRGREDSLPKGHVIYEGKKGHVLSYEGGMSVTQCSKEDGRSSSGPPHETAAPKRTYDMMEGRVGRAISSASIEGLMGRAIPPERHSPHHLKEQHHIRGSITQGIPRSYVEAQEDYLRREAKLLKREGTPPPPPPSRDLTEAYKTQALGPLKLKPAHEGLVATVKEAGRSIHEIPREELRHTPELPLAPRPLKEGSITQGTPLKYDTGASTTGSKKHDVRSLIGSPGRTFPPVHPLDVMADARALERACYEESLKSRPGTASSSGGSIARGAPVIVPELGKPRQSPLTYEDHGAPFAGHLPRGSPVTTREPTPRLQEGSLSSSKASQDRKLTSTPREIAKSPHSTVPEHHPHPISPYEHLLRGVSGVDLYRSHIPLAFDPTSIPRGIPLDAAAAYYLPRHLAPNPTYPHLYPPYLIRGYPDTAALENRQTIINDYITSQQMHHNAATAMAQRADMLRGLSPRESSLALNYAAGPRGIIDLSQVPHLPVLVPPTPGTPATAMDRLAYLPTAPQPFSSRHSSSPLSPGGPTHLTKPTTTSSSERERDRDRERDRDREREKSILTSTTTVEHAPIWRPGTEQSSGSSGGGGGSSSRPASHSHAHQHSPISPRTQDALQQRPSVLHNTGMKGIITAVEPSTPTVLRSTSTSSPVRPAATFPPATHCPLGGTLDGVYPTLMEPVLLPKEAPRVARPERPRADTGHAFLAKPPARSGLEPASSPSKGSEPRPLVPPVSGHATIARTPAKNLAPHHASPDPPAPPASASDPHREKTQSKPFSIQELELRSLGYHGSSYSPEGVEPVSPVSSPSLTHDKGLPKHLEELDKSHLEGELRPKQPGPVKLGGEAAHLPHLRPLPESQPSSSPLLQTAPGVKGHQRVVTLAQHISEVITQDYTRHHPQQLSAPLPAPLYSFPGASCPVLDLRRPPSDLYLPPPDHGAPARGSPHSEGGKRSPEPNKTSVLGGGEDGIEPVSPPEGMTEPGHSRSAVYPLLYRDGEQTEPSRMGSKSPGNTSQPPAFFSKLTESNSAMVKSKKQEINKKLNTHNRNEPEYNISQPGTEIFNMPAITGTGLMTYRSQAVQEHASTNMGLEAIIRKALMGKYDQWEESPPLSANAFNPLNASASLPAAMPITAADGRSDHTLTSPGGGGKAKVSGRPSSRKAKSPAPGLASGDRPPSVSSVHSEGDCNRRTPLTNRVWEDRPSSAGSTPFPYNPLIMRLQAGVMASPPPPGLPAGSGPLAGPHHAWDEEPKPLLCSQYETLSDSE
Chain of Aspartyl aminopeptidase (Q8I2J3 whole entry): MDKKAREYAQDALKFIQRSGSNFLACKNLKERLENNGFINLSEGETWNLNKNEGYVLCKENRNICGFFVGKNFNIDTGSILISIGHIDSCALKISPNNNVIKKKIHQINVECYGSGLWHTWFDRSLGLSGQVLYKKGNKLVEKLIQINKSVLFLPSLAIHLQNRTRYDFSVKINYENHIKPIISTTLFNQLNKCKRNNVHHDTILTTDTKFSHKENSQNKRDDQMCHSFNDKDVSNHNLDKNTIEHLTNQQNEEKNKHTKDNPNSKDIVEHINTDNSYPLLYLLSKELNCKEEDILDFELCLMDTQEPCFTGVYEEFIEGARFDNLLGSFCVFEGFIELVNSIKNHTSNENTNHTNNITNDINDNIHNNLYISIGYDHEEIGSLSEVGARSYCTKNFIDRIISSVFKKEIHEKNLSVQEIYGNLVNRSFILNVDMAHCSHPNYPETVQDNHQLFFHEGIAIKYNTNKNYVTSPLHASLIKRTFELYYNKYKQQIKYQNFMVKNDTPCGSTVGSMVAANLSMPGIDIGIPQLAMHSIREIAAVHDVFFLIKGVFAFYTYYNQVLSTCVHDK
Chain of Acyl-homoserine lactone acylase PvdQ (Q9I194 24-193 limits assumed): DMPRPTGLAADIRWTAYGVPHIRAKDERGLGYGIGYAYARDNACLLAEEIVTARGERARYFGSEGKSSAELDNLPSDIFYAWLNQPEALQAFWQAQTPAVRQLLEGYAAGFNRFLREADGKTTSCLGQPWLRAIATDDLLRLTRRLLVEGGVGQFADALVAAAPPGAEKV
Chain of Acyl-homoserine lactone acylase PvdQ (Q9I194 217-762 limits assumed): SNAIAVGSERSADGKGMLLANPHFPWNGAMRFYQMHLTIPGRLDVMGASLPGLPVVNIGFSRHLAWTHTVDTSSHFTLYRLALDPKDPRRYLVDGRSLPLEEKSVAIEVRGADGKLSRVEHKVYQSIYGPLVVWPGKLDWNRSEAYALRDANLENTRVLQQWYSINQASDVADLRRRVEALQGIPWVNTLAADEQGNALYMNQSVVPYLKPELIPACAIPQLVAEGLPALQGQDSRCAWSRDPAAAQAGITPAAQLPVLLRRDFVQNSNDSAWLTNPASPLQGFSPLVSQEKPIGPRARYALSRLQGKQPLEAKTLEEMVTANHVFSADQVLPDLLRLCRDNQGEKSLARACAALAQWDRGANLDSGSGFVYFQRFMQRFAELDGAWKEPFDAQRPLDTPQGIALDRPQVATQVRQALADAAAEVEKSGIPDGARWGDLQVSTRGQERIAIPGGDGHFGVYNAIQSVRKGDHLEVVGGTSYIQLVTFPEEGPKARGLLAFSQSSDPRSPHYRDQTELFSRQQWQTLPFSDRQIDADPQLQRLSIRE

In the case of `Cc1cc(Br)c2nc3c(c(C(=O)O)c2c1)CCCCC3`, the IC50 (Major prion protein) is reported as 0.141 µM (active), the IC50 (Genome polyprotein) is reported as > 49.8 µM (not active) and the IC50 [1] is reported as 1.38 µM (active). The IC50 (cells) was > 138 µM (inactive), the IC50 [2] was 0.604 µM (active) and the EC50 [3] was > 79.4 µM (not active). For the same molecule, the EC50 [4] was 12.8 µM (not active) and the EC50 [5] was > 79.4 µM (inactive).
In the case of `Nc1nncn1C(=O)CCCOc1ccc(Cl)cc1Cl`, the IC50 (Procathepsin L) is reported as > 59.6 µM (not active) and the IC50 (Aspartyl aminopeptidase) is reported as 2.6 µM (active).
In the case of `CC(=O)OCCCN1c2ccccc2Nc2nnc(-c3ccccc3)cc21`, the AC50 (Cytochrome P450 2D6) is reported as 15.8 µM (inconclusive), the IC50 [6] is reported as > 100 µM (active) and the EC50 [7] is reported as 71.8 µM (not active).
For `Cc1cccc(C(C#N)c2ccc(Cl)nn2)c1` (configuration not stated), the AC50 [8] was 2.01 µM (active) and the EC50 [9] was > 260 µM (inactive).
In the case of `O=C(COc1ccc(Cl)cc1)Nc1ncc([N+](=O)[O-])s1`, the EC50 (HEK293) is reported as > 35.4 µM (not active), the IC50 [10] is reported as 24.9 µM (not active) and the EC50 [11] is reported as 0.166 µM (active). For the same molecule, the EC50 [9] was 0.382 µM (active), the EC50 [12] was > 35.4 µM (not active) and the EC50 [13] was 36 µM (active). The EC50 [14] was 33.8 µM (not active).
In the case of `Cc1cccc(C)c1NC(=O)CCCCCC1NC(=O)NC1C` (configuration not stated), the IC50 [1] is reported as 3.85 µM (active), the IC50 [2] is reported as > 39.8 µM (not active) and the IC50 [15] is reported as 0.106 µM (active).
With `COc1ccc(Cl)cc1NC(=O)CN1CCC(n2nnc3cc(C)ccc32)CC1` the EC50 (Streptokinase A) was 26.4 µM (active), the EC50 (Streptococcus) was 93.4 µM (active) and the IC50 [16] was > 20 µM (inactive). The EC50 [17] was 12.2 µM (active) and the EC50 [7] was 70.6 µM (not active).
With `CCN(CC)S(=O)(=O)c1ccc(C(=O)Nn2cnnc2)cc1` the IC50 (Procathepsin L) was > 59.6 µM (not active) and the IC50 (Aspartyl aminopeptidase) was 1.07 µM (active).
